The text below walks through data of the NIST ThermoML archive (doi:10.1016/j.fluid.2007.06.017).

The conditions of this data set: Crystal; DTA.

Numbers after ± are expanded uncertainties.

On to `CCCCCCCCCCCCCC[P+](CCCCCC)(CCCCCC)CCCCCC.O=S(=O)([N-]S(=O)(=O)C(F)(F)F)C(F)(F)F`, for which the Normal melting temperature stood at 33.00 ± 1 °C.
